# Measured values from ChEMBL document CHEMBL4673392, “Discovery of a Novel Series of Potent and Selective Alkynylthiazole-Derived PI3Kγ Inhibitors” (ACS Med Chem Lett, 2021).
# Key:
# [1] = target: T1, Phosphatidylinositol 4,5-bisphosphate 3-kinase catalytic subunit gamma isoform (Homo sapiens, UniProt P48736); assay: Inhibition of PI3Kgamma (unknown origin) using PIP2 as substrate measured after 15 mins in presence of [33P]-ATP by liquid scintillation counting method
# [2] = target: T1, Phosphatidylinositol 4,5-bisphosphate 3-kinase catalytic subunit gamma isoform; assay: Inhibition of PI3Kgamma in human THP-1 cells assessed as reduction in Akt phosphorylation at Ser473 residue; assay type: cell-based
# [3] = target: Vascular endothelial growth factor receptor 2 (Homo sapiens, UniProt P35968); assay: Inhibition of KDR (unknown origin)
# [4] = target: T2, Interleukin-1 receptor-associated kinase 4 (Homo sapiens, UniProt Q9NWZ3); assay: Inhibition of IRAK4 (unknown origin)
# T2 sequence (Q9NWZ3 whole entry): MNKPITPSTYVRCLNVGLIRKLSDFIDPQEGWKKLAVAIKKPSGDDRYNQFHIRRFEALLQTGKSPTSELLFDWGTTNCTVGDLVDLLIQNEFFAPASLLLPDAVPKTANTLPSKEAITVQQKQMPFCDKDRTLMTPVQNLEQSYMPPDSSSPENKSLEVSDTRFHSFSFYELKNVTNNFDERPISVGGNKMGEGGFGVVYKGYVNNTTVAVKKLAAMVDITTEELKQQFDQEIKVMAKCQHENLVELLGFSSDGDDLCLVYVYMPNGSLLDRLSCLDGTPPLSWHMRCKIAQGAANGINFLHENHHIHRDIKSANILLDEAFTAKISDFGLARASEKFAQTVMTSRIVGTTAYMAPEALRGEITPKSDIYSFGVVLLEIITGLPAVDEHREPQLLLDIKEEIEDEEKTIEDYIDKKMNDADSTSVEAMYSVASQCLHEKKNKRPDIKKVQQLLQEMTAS
# [5] = target: Glycogen synthase kinase-3 beta (Homo sapiens, UniProt P49841); assay: Inhibition of GSK3B (unknown origin)
# Sequence of Glycogen synthase kinase-3 beta (P49841 whole entry): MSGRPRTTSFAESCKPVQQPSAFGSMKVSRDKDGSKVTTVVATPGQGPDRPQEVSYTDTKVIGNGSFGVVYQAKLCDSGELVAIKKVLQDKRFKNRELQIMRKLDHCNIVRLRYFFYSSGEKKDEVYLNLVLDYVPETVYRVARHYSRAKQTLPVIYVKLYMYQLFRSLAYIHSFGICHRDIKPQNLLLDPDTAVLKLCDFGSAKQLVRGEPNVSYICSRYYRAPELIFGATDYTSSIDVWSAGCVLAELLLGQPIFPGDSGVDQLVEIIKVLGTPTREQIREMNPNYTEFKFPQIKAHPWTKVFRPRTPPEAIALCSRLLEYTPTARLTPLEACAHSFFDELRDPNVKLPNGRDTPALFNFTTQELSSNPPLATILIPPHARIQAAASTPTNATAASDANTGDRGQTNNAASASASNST
# [6] = target: Rho-associated protein kinase 1 (Homo sapiens, UniProt Q13464); assay: Inhibition of ROCK1 (unknown origin)
# Sequence of Rho-associated protein kinase 1 (Q13464 whole entry): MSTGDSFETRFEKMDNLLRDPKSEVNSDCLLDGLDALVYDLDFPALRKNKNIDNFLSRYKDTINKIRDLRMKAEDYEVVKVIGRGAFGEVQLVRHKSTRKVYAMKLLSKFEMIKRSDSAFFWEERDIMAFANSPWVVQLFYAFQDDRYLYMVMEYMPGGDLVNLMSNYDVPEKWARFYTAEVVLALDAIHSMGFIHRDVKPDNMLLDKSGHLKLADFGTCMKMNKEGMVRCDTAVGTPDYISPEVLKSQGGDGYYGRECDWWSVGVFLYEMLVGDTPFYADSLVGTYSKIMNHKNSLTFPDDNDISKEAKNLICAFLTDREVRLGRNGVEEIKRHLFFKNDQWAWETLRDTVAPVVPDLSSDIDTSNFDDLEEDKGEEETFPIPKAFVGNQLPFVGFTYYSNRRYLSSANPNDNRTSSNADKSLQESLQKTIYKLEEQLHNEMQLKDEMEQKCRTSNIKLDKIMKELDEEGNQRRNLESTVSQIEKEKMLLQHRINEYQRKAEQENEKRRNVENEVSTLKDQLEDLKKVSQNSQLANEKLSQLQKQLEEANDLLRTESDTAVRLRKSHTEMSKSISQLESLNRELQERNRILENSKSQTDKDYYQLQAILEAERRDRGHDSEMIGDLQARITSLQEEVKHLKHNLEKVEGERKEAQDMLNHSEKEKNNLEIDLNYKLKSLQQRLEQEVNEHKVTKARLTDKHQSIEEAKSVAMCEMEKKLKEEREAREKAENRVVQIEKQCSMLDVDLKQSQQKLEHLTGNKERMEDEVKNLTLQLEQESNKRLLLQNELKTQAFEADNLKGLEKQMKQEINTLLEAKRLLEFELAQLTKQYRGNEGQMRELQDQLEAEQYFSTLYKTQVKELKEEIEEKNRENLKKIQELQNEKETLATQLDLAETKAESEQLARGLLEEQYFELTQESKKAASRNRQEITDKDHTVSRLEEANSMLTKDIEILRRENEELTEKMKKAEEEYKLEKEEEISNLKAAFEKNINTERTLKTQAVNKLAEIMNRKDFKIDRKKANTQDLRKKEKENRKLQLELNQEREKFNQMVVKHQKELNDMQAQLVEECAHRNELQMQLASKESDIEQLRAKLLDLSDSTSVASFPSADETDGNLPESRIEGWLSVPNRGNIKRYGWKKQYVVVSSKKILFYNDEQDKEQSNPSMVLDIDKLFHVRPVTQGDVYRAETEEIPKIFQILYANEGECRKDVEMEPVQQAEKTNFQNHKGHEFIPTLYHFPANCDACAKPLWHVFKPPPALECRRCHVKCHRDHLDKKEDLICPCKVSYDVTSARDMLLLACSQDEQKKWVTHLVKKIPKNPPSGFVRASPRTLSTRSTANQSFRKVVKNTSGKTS
# [7] = target: Serine/threonine-protein kinase PLK1 (Homo sapiens, UniProt P53350); assay: Inhibition of PLK1 (unknown origin)
# Sequence of Serine/threonine-protein kinase PLK1 (P53350 whole entry): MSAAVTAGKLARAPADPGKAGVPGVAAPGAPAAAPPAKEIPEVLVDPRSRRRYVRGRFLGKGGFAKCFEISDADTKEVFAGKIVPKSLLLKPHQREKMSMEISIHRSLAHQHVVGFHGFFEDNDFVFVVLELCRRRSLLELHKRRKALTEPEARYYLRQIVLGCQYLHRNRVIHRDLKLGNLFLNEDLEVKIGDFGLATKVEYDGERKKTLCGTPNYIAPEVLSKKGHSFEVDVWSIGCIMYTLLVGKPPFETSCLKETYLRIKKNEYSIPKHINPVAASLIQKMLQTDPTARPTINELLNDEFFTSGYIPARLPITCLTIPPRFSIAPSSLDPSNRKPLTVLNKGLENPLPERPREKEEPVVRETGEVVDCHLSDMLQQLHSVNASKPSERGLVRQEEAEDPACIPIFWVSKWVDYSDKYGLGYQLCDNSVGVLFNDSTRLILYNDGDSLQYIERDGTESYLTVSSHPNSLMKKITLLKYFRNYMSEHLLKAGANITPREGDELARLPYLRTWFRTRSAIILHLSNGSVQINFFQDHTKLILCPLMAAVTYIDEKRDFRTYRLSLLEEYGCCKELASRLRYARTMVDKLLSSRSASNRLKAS
# [8] = target: Tyrosine-protein kinase SYK (Homo sapiens, UniProt P43405); assay: Inhibition of SYK (unknown origin)
# [9] = target: Proto-oncogene tyrosine-protein kinase Src (Homo sapiens, UniProt P12931); assay: Inhibition of SRC (unknown origin)
# Sequence of Proto-oncogene tyrosine-protein kinase Src (P12931 2-536 limits assumed): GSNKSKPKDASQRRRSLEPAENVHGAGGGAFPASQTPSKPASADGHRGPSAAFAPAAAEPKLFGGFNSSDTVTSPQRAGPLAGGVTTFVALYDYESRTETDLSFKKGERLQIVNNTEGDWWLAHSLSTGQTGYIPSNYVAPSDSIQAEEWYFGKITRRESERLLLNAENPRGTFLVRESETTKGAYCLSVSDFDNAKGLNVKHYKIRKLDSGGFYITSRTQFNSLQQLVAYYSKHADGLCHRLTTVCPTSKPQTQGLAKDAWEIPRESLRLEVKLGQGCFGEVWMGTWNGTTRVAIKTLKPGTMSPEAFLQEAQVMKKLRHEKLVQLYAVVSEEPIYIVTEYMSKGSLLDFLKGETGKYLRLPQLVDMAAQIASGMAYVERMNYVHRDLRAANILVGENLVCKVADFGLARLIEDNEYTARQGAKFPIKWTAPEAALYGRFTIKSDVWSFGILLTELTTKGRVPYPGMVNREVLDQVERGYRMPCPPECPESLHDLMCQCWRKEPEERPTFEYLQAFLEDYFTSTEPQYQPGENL
# [10] = target: T3, Receptor-type tyrosine-protein kinase FLT3 (Homo sapiens, UniProt P36888); assay: Inhibition of FLT3 (unknown origin)
# T3 sequence (P36888 whole entry): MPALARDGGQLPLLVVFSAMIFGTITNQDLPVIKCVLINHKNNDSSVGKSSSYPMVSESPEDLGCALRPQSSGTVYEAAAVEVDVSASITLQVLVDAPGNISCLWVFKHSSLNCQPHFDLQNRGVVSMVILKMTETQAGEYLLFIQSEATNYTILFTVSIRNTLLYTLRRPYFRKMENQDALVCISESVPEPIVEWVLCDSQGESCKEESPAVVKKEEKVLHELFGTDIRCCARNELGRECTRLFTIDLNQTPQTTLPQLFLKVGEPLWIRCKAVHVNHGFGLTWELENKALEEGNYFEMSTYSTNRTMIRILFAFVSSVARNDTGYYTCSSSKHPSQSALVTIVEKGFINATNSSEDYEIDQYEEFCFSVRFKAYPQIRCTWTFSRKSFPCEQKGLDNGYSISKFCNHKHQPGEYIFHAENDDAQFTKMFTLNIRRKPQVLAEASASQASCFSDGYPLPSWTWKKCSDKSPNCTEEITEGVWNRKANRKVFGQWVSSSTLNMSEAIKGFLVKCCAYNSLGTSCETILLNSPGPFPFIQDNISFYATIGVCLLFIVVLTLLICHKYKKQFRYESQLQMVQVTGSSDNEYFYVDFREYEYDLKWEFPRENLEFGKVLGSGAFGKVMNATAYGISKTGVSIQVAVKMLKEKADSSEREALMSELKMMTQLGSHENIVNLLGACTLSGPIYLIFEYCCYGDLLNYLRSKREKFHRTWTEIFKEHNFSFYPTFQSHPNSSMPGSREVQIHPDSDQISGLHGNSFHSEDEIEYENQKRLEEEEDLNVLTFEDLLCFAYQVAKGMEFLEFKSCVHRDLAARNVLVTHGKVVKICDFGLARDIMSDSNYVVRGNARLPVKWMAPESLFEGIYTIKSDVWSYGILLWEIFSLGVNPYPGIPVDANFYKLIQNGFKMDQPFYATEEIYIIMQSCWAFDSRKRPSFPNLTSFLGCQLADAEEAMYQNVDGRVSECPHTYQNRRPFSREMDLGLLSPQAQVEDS
# [11] = target: Cyclin-dependent kinase 2 (Homo sapiens, UniProt P24941); assay: Inhibition of CDK2 (unknown origin)
# [12] = target: Mitogen-activated protein kinase 10 (Homo sapiens, UniProt P53779); assay: Inhibition of JNK3 (unknown origin)
# Sequence of Mitogen-activated protein kinase 10 (P53779 whole entry): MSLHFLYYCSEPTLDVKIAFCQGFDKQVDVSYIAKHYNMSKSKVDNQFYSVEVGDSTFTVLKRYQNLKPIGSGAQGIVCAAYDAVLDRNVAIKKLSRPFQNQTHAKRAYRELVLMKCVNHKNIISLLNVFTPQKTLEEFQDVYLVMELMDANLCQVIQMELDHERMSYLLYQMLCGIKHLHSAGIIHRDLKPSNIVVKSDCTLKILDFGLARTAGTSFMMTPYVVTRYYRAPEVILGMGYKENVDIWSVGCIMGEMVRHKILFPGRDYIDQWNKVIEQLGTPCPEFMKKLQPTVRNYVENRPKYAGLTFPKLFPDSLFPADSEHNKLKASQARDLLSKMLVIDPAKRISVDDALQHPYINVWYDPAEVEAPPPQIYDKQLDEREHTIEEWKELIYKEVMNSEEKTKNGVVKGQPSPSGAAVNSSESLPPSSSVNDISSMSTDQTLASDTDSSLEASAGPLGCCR
# [13] = target: Tyrosine-protein kinase JAK2 (Homo sapiens, UniProt O60674); assay: Inhibition of JAK2 (unknown origin)
# Mus musculus = assay: Antiinflammatory activity against Balb/c mouse air pouch model assessed as decrease in IL-8 stimulated neutrophil recruitment in air pouch at 50 mg/kg, po treated for 1 hr prior to IL-8 administration and measured after 4 hrs by FACS analysis; assay type: functional; conditions: time 5 hrs
# [14] = target: Phosphatidylinositol 4,5-bisphosphate 3-kinase catalytic subunit alpha isoform (Homo sapiens, UniProt P42336); assay: Inhibition of PI3Kalpha (unknown origin) using PIP2 as substrate measured after 15 mins in presence of [33P]-ATP by liquid scintillation counting method
# T1 sequence (P48736 whole entry, canonical isoform): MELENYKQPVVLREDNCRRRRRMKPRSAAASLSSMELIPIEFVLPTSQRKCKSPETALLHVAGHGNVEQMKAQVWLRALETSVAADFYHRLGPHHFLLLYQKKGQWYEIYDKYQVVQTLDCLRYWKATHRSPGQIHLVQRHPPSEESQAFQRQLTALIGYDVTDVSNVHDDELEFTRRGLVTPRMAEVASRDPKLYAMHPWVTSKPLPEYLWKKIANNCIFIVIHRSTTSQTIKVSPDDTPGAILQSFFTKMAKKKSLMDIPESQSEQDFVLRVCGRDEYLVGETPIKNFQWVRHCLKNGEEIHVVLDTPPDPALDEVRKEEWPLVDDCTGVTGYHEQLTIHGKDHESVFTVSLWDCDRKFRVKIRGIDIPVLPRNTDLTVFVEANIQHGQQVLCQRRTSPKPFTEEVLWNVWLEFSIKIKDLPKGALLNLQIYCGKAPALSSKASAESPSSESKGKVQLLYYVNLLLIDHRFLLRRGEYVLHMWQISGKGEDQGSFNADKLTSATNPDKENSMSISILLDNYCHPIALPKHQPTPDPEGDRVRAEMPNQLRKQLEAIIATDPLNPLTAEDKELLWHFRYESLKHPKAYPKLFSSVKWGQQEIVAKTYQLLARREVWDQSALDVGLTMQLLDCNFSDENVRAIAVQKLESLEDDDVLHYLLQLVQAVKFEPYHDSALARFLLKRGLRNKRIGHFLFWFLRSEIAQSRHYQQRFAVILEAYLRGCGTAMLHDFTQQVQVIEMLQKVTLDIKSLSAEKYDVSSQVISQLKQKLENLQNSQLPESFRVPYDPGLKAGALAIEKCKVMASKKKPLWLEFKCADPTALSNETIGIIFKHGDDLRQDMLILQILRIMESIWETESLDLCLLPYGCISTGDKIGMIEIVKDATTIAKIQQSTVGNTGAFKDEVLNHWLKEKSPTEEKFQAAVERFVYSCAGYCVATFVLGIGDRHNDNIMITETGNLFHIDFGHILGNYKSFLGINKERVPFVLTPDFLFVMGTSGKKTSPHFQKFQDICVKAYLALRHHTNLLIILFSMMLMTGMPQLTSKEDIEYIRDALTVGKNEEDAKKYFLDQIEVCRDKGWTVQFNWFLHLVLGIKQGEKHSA
SMILES,Ki [1] [µM],IC50 [2] [µM],Ki [3] [µM],Ki [4] [µM],Ki [5] [µM],Ki [6] [µM],Ki [7] [µM],Ki [8] [µM],Ki [9] [µM],Ki [10] [µM],Ki [11] [µM],Ki [12] [µM],Ki [13] [µM],inhibition in vivo at 50 mg/kg (Mus musculus) [%],Ki [14] [µM]
Cc1nc(NC(=O)NCCOCC2CC2)sc1C#Cc1ccnc(F)c1,0.006,0.49,–,–,–,–,–,–,–,–,–,–,–,–,–
Cc1nc(NC(=O)NCCOCC2CC2)sc1C#Cc1ccnc2ccccc12,0.006,0.29,–,–,–,–,–,–,–,–,–,–,–,–,–
Cc1nc(NC(=O)NCCOCC2CC2)sc1C#Cc1ccc2cncn2c1,–,–,> 4,> 4,> 4,> 4,> 4,> 4,> 4,> 4,> 4,> 4,> 4,–,–
COc1cc(C#Cc2sc(NC(=O)NCCOCC3CC3)nc2C)cnc1OC,0.003,0.18,> 4,> 4,> 4,> 4,> 4,> 4,> 4,> 4,> 4,> 4,> 4,85,–
CCOCCNC(=O)Nc1nc(C)c(C#Cc2ccncc2)s1,0.042,0.56,–,–,–,–,–,–,–,–,–,–,–,–,–
Cc1nc(NC(=O)NCCOCC2CC2)sc1C#Cc1cnc2ncccc2c1,0.045,> 10,–,–,–,–,–,–,–,–,–,–,–,–,–
CCCOCCNC(=O)Nc1nc(C)c(C#Cc2ccncc2)s1,0.006,0.23,–,–,–,–,–,–,–,–,–,–,–,–,–
COCCNC(=O)Nc1nc(C)c(C#Cc2ccncc2)s1,0.043,0.76,–,–,–,–,–,–,–,–,–,–,–,–,–
Cc1nc(NC(=O)NCCc2cn(CC(F)F)cn2)sc1C#Cc1cccnc1,0.004,0.13,> 4,> 4,> 4,> 4,> 4,> 4,> 4,> 4,> 4,> 4,> 4,–,0.252
